# How the values were obtained:
# [1] = system: patients diagnosed attention-deficit hyperactivity disorder; assay: administration to patients diagnosed attention-deficit hyperactivity disorder; format: in vivo, human
# Source text: The “attention-deficit hyperactivity disorder,” as referred to herein, to which the composition of the present invention is applied is a symptom judged on the basis of a diagnostic method for ADHD, as defined in DSM-IV Seishin Shogai no Shindan•Tokei Manyuaru (Diagnosis and Statistic Manuals for DSM-IV Mental Disorders) (published by Igakushoin, 1996). Concretely, an individual with ADHD meets the following criteria.
# In addition, the diagnosis is made under the conditions that some of these symptoms have caused problems before reaching 7-years old, and that any problems take place at present in two or more different locations (examples: school and home). Also, the judgment is made only in the case where serious disorders are recognized in social life, schoolwork and vocational work, and any of the symptoms are not caused by other diseases.
# The exhibition of the action for mitigating or alleviating attention-deficit hyperactivity disorder by theanine can be evaluated by a clinical test in which theanine is administered to a patient who meets the above-mentioned [Criteria for Diagnosis], and any ameliorative effects on attention-deficit hyperactivity disorder are observed, as compared to that before the administration of theanine.
# Five patients who were diagnosed attention-deficit hyperactivity disorder by doctors were administered with a composition containing L-theanine. The composition was prepared so that L-theanine was mixed with crystalline cellulose, sucrose fatty acid ester, reducing maltose, silicon dioxide, lactose and aspartame so as to have the content of L-theanine of 20% by weight, and tableting the mixture to prepare a tablet.
# mouse = assay: acute toxic test using a mouse; format: in vivo; settings: oral administration at 5 g/kg
# Source text: The theanine used in the present invention has high safety. […] Also, especially L-theanine is known as a main component of umami (tastiness) of the green tea, and is also used as a food additive giving umami, without the limitation of its added amount under the regulation for food hygiene. Moreover, contrary to the conventional drugs, since there is no side effect by theanine at all, the amelioration of attention-deficit hyperactivity disorder can be safely and effectively achieved according to the composition of the present invention.
smiles,measurement,setting,value
CCNC(=O)CC[C@H](N)C(=O)O [L-theanine],effect judged by the doctor in charge,"[1]; Patient 1, 50 mg/day over 8 weeks",effective
same,ADHD symptoms after the termination of the administration,"[1]; Patient 1, 50 mg/day over 8 weeks, tablet with 20% by weight L-theanine",substantially disappeared
same,ADHD symptoms after the termination of the administration,"[1]; Patient 2 (person one), 200 mg/day over 10 weeks",substantially disappeared
same,effect judged by the doctor in charge,"[1]; Patient 2, 200 mg/day over 10 weeks",effective
same,ADHD symptoms,"[1]; Patient 3, 100 mg/day together with Ritalin over 1 week",substantially disappeared
same,behaviour at school on the day of administration,"[1]; Patient 4, 200 mg/day only once before school",could attend the classes without any problems
same,state of symptoms in the following day (maintenance by a single dosage),"[1]; Patient 4, 200 mg/day only once, following day",returned to the original state of symptoms
same,ADHD symptoms after the termination of the administration,"[1]; Patient 5, 60 mg/day over 1 week",remarkably ameliorated
"COC(=O)C(c1ccccc1)C1CCCCN1 (stereo not drawn) [Ritalin, methylphenidate, reference compound]",ADHD symptoms during the administration,"[1]; Patient 2, earlier treatment with Ritalin",stabilized
same,side effects,"[1]; Patient 2, earlier treatment with Ritalin, administration was stopped",serious
"CCNC(=O)CC[C@H](N)C(=O)O [theanine, γ-glutamylethylamide]","abnormalities in the general states, weight and the like",mouse,no abnormalities
same,cases of death,mouse,no cases of death

# From patent US20060004026A1, “Compositions for ameliorating attention-deficient/hyperactivity disorder” (priority 2001, published 2006)
